The data set can be described thus: Solubility of cannabidiol in alkyl esters of octanoic acid. It is filed as physicochemical. Conditions: in methyl octanoate and/or ethyl octanoate. The protocol: The cannabidiol can be present in an amount of from about 100 mg/mL. The cannabidiol can also be present in an amount up to about 150 mg/mL, 200 mg/ml, 250 mg/mL, 300 mg/mL, or 350 mg/mL, with higher concentrations of cannabidiol being preferred to reduce injection volume and promote ease of administration while reducing patient discomfort. The identity of ingredients and their amounts in the solvent system will determine the actual amount of cannabidiol that can be fully dissolved. […] Therefore, the higher the amount of alkyl ester of fatty acid that is present, the higher the amount of cannabidiol that can be dissolved.

Consider `C=C(C)[C@@H]1CCC(C)=C[C@H]1c1c(O)cc(CCCCC)cc1O` [cannabidiol, Cannabidiol], for which the “amount of cannabidiol that can be dissolved” value is given as “at least 750 mg/mL”.

For the origin of these results see patent US20260034051A1, “STABLE INJECTABLE CANNABIDIOL FORMULATIONS” (CARDIOL THERAPEUTICS INC., priority 2022, published 2026).
